# Data from publication PMC12881674, “Activation of TRPV3 channels in bladder cancer cells stimulates ATP release” (Molecular Pharmacology, 2025).
# Tested on: KU-19-19 cells
# Experiment: ATPlite luminescence assay of extracellular ATP
# Format: cell-based, human
# Conditions: 50 μM AV3-1, 30 minutes
# Description: KU-19-19 cells (1 × 10^5 per well) were plated in 24-well plates and cultured for 24 hours. Medium was removed, and wells were washed with PBS before adding 1 mL of drugs dissolved in PBS. After 30 minutes, 100 μL of the supernatant was transferred to a 96-well plate. ATP content was measured using the ATPlite luminescence ATP assay (Revvity, catalog number 6016943) following manufacturer’s instructions. Luminescence was recorded using a Polarstar Omega reader and normalized to control wells without addition of drugs.
# Fig. 4 TRPV3 activation by AV3-1 was enhanced by cholesterol supplementation and causes ATP release in KU-19-19 bladder cancer cells. […] Current amplitudes were recorded using voltage ramps from −100 mV to +100 mV (500-millisecond duration) and expressed as current density (pA/pF) measured at +100 mV and −100 mV. (C) Quantification of current densities (pA/pF) at −100 mV (inward current) and +100 mV (outward current) at the time points (1, 2) as indicated in (A, B). […] Statistical significance was determined using Kruskal-Wallis ANOVA followed by Conover test; ∗P < .05. […] Inset: Box-and-whisker plots of AV3-1 potencies under control conditions (open box) and following cholesterol supplementation (gray box), derived from individual concentration-response fits and expressed as pEC50 (-log10(EC50 [M])). […]
smiles,measurement,value
COC(=O)C12CN(Cc3ccccc3)CC1(C(=O)OC)CN(Cc1ccccc1)C2 (stereo not shown) [AV3-1],ATP release compared with untreated control cells,statistically significant increased ATP release
